Earlier results as cited in patent US20110290909A1, “MULTI-COMPONENT INSECT ATTRACTANT” (priority 2006, published 2011).

What was measured:
[1] = system: male melon flies; conditions: cue lure compared with raspberry ketone
[2] = system: male melon fruit flies; conditions: in vivo

Structure (SMILES)	effects on mating success [1]	effectiveness as chemical attractant for male melon fruit flies [2]
CC(=O)CCc1ccc(OC(C)=O)cc1 [cue lure]	similar, short-lasting effects	
CC(=O)CCc1ccc(O)cc1 [raspberry ketone]	similar, short-lasting effects	very effective chemical attractant
